According to patent US11807644B2 (PMV Pharmaceuticals, Inc., priority 2020, dated 2023):

biological target: T1, recombinant His-tag Y220C p53 DBD protein (Homo sapiens, UniProt P04637, Y220C); assay: In vitro DNA binding activity assay (TR-FRET): binding of His-tag Y220C p53 DBD to biotin-labeled consensus DNA; format: biochemical; conditions: SC150 = concentration to increase DNA binding by […], His-tag Y220C p53 DBD, biotin-labeled consensus DNA
T1 construct: recombinant His-tag Y220C p53 DBD protein (amino acids #˜94-312)

Row | Structure (SMILES) | Y220C SC150 (μM)
1 | Cc1c[nH]c2cc(C(=O)NCc3nc(-c4cc5c(N[C@@H]6CCN(C)C[C@@H]6F)cccc5n4CC(F)(F)F)no3)ccc12 [Compound 274B, N-{[3-(4-{[(3S,4R)-3-fluoro-1-methylpiperidin-4-yl]amino}-1-(2,2,2-trifluoroethyl)-1H-indol-2-yl)-1,2,4-oxadiazol-5-yl]methyl}-3-methyl-1H-indole-6-carboxamide] | * (* = 0 μM ≤ SC150 < 0.1 μM)
2 | CN1CC[C@@H](Nc2cccc3c2cc(-c2cc(CNC(=O)c4ccn(C(C)(C)C)c4)cs2)n3CC(F)(F)F)[C@@H](F)C1 [Compound 283B, 1-tert-butyl-N-{[5-(4-{[(3S,4R)-3-fluoro-1-methylpiperidin-4-yl]amino}-1-(2,2,2-trifluoroethyl)-1H-indol-2-yl)thiophen-3-yl]methyl}-1H-pyrrole-3-carboxamide] | ** (** = 0.1 μM ≤ SC150 < 0.5 μM)
3 | CN1CC[C@@H](Nc2cccc3c2cc(-c2cc(CNc4ccc(S(C)(=O)=O)cc4)cs2)n3CC(F)(F)F)[C@@H](F)C1 [Compound 284B, N-[(3S,4R)-3-fluoro-1-methylpiperidin-4-yl]-2-(4-{[(4-methanesulfonylphenyl)amino]methyl}thiophen-2-yl)-1-(2,2,2-trifluoroethyl)-1H-indol-4-amine] | ** (** = 0.1 μM ≤ SC150 < 0.5 μM)
4 | CN1CC[C@@H](Nc2cccc3c2cc(-c2ccc(CNC(=O)c4cnn(C(C)(C)C)c4)cn2)n3CC(F)(F)F)[C@@H](F)C1 [Compound 285B, 1-tert-butyl-N-{[6-(4-{[(3S,4R)-3-fluoro-1-methylpiperidin-4-yl]amino}-1-(2,2,2-trifluoroethyl)-1H-indol-2-yl)pyridin-3-yl]methyl}-1H-pyrazole-4-carboxamide] | ** (** = 0.1 μM ≤ SC150 < 0.5 μM)
5 | CN1CC[C@@H](Nc2cccc3c2cc(-c2nnc(CNC(=O)c4ccn(C(C)(C)C)c4)s2)n3CC(F)(F)F)[C@@H](F)C1 [Compound 286B, 1-tert-butyl-N-{[5-(4-{[(3S,4R)-3-fluoro-1-methylpiperidin-4-yl]amino}-1-(2,2,2-trifluoroethyl)-1H-indol-2-yl)-1,3,4-thiadiazol-2-yl]methyl}-1H-pyrrole-3-carboxamide] | * (* = 0 μM ≤ SC150 < 0.1 μM)
6 | CN1CC[C@@H](Nc2cccc3c2cc(-c2nnc(CNC(=O)c4ccn(C5(C)CCOCC5)c4)s2)n3CC(F)(F)F)[C@@H](F)C1 [Compound 287B, N-{[5-(4-{[(3S,4R)-3-fluoro-1-methylpiperidin-4-yl]amino}-1-(2,2,2-trifluoroethyl)-1H-indol-2-yl)-1,3,4-thiadiazol-2-yl]methyl}-1-(4-methyloxan-4-yl)-1H-pyrrole-3-carboxamide] | * (* = 0 μM ≤ SC150 < 0.1 μM)
7 | CN1CC[C@@H](Nc2cccc3c2cc(-c2nnc(CNC(=O)c4ccn(C(C)(C)C)c4)o2)n3CC(F)(F)F)[C@@H](F)C1 [Compound 288B, 1-tert-butyl-N-{[5-(4-{[(3S,4R)-3-fluoro-1-methylpiperidin-4-yl]amino}-1-(2,2,2-trifluoroethyl)-1H-indol-2-yl)-1,3,4-oxadiazol-2-yl]methyl}-1H-pyrrole-3-carboxamide] | * (* = 0 μM ≤ SC150 < 0.1 μM)
8 | COCC(C)n1ccc(C(=O)NCc2nc(-c3cc4c(N[C@@H]5CCN(C)C[C@@H]5F)cccc4n3CC(F)(F)F)no2)c1 (stereo partly drawn) [Compound 289B, N-{[3-(4-{[(3S,4R)-3-fluoro-1-methylpiperidin-4-yl]amino}-1-(2,2,2-trifluoroethyl)-1H-indol-2-yl)-1,2,4-oxadiazol-5-yl]methyl}-1-(1-methoxypropan-2-yl)-1H-pyrrole-3-carboxamide] | * (* = 0 μM ≤ SC150 < 0.1 μM)
9 | COCCn1cc(C(=O)NCc2nc(-c3cc4c(N[C@@H]5CCN(C)C[C@@H]5F)cccc4n3CC(F)(F)F)no2)cn1 [Compound 290B, N-{[3-(4-{[(3S,4R)-3-fluoro-1-methylpiperidin-4-yl]amino}-1-(2,2,2-trifluoroethyl)-1H-indol-2-yl)-1,2,4-oxadiazol-5-yl]methyl}-1-(2-methoxyethyl)-1H-pyrazole-4-carboxamide] | * (* = 0 μM ≤ SC150 < 0.1 μM)
10 | CN1CC[C@@H](Nc2cccc3c2cc(-c2noc(CNC(=O)c4cn(C(C)(C)C)cn4)n2)n3CC(F)(F)F)[C@@H](F)C1 [Compound 292B, 1-tert-butyl-N-{[3-(4-{[(3S,4R)-3-fluoro-1-methylpiperidin-4-yl]amino}-1-(2,2,2-trifluoroethyl)-1H-indol-2-yl)-1,2,4-oxadiazol-5-yl]methyl}-1H-imidazole-4-carboxamide] | * (* = 0 μM ≤ SC150 < 0.1 μM)
11 | CCN1CC[C@@H](Nc2cccc3c2cc(-c2noc(CNC(=O)c4ccn(CCF)c4)n2)n3CC(F)(F)F)[C@@H](F)C1 [Compound 293B, N-{[3-(4-{[(3S,4R)-1-ethyl-3-fluoropiperidin-4-yl]amino}-1-(2,2,2-trifluoroethyl)-1H-indol-2-yl)-1,2,4-oxadiazol-5-yl]methyl}-1-(2-fluoroethyl)-1H-pyrrole-3-carboxamide] | * (* = 0 μM ≤ SC150 < 0.1 μM)
12 | CN1CC[C@@H](Nc2cccc3c2cc(-c2noc(CNC(=O)c4cnn(C)c4)n2)n3CC(F)(F)F)[C@@H](F)C1 [Compound 294B, N-{[3-(4-{[(3S,4R)-3-fluoro-1-methylpiperidin-4-yl]amino}-1-(2,2,2-trifluoroethyl)-1H-indol-2-yl)-1,2,4-oxadiazol-5-yl]methyl}-1-methyl-1H-pyrazole-4-carboxamide] | * (* = 0 μM ≤ SC150 < 0.1 μM)
13 | COc1ccc(C(=O)NCc2nc(-c3cc4c(N[C@@H]5CCN(C)C[C@@H]5F)cccc4n3CC(F)(F)F)no2)cc1 [Compound 295B, N-{[3-(4-{[(3S,4R)-3-fluoro-1-methylpiperidin-4-yl]amino}-1-(2,2,2-trifluoroethyl)-1H-indol-2-yl)-1,2,4-oxadiazol-5-yl]methyl}-4-methoxybenzamide] | * (* = 0 μM ≤ SC150 < 0.1 μM)
14 | CN1CC[C@@H](Nc2cccc3c2cc(-c2noc(CNC(=O)c4cnn(C5CC5)c4)n2)n3CC(F)(F)F)[C@@H](F)C1 [Compound 296B, 1-cyclopropyl-N-{[3-(4-{[(3S,4R)-3-fluoro-1-methylpiperidin-4-yl]amino}-1-(2,2,2-trifluoroethyl)-1H-indol-2-yl)-1,2,4-oxadiazol-5-yl]methyl}-1H-pyrazole-4-carboxamide] | * (* = 0 μM ≤ SC150 < 0.1 μM)
15 | COCCn1cnc(C(=O)NCc2nc(-c3cc4c(N[C@@H]5CCN(C)C[C@@H]5F)cccc4n3CC(F)(F)F)no2)c1 [Compound 297B, N-{[3-(4-{[(3S,4R)-3-fluoro-1-methylpiperidin-4-yl]amino}-1-(2,2,2-trifluoroethyl)-1H-indol-2-yl)-1,2,4-oxadiazol-5-yl]methyl}-1-(2-methoxyethyl)-1H-imidazole-4-carboxamide] | * (* = 0 μM ≤ SC150 < 0.1 μM)
16 | CCN1CC[C@@H](Nc2cccc3c2cc(-c2noc(CNC(=O)c4ccn(C(C)(C)C)c4)n2)n3CC(F)(F)F)[C@@H](F)C1 [Compound 298B, 1-tert-butyl-N-{[3-(4-{[(3S,4R)-1-ethyl-3-fluoropiperidin-4-yl]amino}-1-(2,2,2-trifluoroethyl)-1H-indol-2-yl)-1,2,4-oxadiazol-5-yl]methyl}-1H-pyrrole-3-carboxamide] | * (* = 0 μM ≤ SC150 < 0.1 μM)
17 | CCN1CC[C@H](Nc2cccc3c2cc(-c2noc(CNC(=O)c4ccn(C(C)(C)C)c4)n2)n3CC(F)(F)F)[C@H](F)C1 [Compound 299B, 1-tert-butyl-N-{[3-(4-{[(3R,4S)-1-ethyl-3-fluoropiperidin-4-yl]amino}-1-(2,2,2-trifluoroethyl)-1H-indol-2-yl)-1,2,4-oxadiazol-5-yl]methyl}-1H-pyrrole-3-carboxamide] | * (* = 0 μM ≤ SC150 < 0.1 μM)
18 | CN1CC[C@@H](Nc2cccc3c2cc(-c2noc(CNC(=O)c4cnn(Cc5ccccc5)c4)n2)n3CC(F)(F)F)[C@@H](F)C1 [Compound 300B, 1-benzyl-N-{[3-(4-{[(3S,4R)-3-fluoro-1-methylpiperidin-4-yl]amino}-1-(2,2,2-trifluoroethyl)-1H-indol-2-yl)-1,2,4-oxadiazol-5-yl]methyl}-1H-pyrazole-4-carboxamide] | * (* = 0 μM ≤ SC150 < 0.1 μM)
19 | CN1CC[C@@H](Nc2cccc3c2cc(-c2noc(CNC(=O)c4cnn(CCF)c4)n2)n3CC(F)(F)F)[C@@H](F)C1 [Compound 301B] | * (* = 0 μM ≤ SC150 < 0.1 μM)
20 | COCC(C)n1cc(C(=O)NCc2nc(-c3cc4c(N[C@@H]5CCN(C)C[C@@H]5F)cccc4n3CC(F)(F)F)no2)cn1 (stereo partly drawn) [Compound 302B, N-{[3-(4-{[(3S,4R)-3-fluoro-1-methylpiperidin-4-yl]amino}-1-(2,2,2-trifluoroethyl)-1H-indol-2-yl)-1,2,4-oxadiazol-5-yl]methyl}-1-(1-methoxypropan-2-yl)-1H-pyrazole-4-carboxamide] | * (* = 0 μM ≤ SC150 < 0.1 μM)
21 | CC(CF)n1cc(C(=O)NCc2nc(-c3cc4c(N[C@@H]5CCN(C)C[C@@H]5F)cccc4n3CC(F)(F)F)no2)cn1 (stereo partly drawn) [Compound 303B, N-{[3-(4-{[(3S,4R)-3-fluoro-1-methylpiperidin-4-yl]amino}-1-(2,2,2-trifluoroethyl)-1H-indol-2-yl)-1,2,4-oxadiazol-5-yl]methyl}-1-(1-fluoropropan-2-yl)-1H-pyrazole-4-carboxamide] | * (* = 0 μM ≤ SC150 < 0.1 μM)
22 | CCN1CC[C@@H](Nc2cccc3c2cc(-c2noc(CNC(=O)c4cnn(C(C)(C)C)c4)n2)n3CC(F)(F)F)[C@@H](F)C1 [Compound 304B, 1-tert-butyl-N-{[3-(4-{[(3S,4R)-1-ethyl-3-fluoropiperidin-4-yl]amino}-1-(2,2,2-trifluoroethyl)-1H-indol-2-yl)-1,2,4-oxadiazol-5-yl]methyl}-1H-pyrazole-4-carboxamide] | * (* = 0 μM ≤ SC150 < 0.1 μM)
23 | CCN1CC[C@@H](Nc2cccc3c2cc(-c2noc(CNC(=O)c4cn(C(C)(C)C)cn4)n2)n3CC(F)(F)F)[C@@H](F)C1 [Compound 305B, 1-tert-butyl-N-{[3-(4-{[(3S,4R)-1-ethyl-3-fluoropiperidin-4-yl]amino}-1-(2,2,2-trifluoroethyl)-1H-indol-2-yl)-1,2,4-oxadiazol-5-yl]methyl}-1H-imidazole-4-carboxamide] | * (* = 0 μM ≤ SC150 < 0.1 μM)
